Test: distribution coefficient (log P), measured between n-octanol and water
Assay type: physicochemical
Details: experimental value, read-out: logP Observed
Description: On the other hand, the measured value of the distribution coefficient is calculated by the following equation using a concentration of a medicinal ingredient dissolved in each of two phases of water and n-octanol, which is obtained by a conventional quantitative method such as absorption spectrophotometry, gas chromatography or liquid chromatography:
Log P=Log [(concentration of the medicinal ingredient in n-octanol phase)/(concentration of the medicinal ingredient in water phase)

Row | logP | Structure (SMILES)
1 | -2.15 | O=C1O[C@H]([C@@H](O)CO)C(O)=C1O [ascorbic acid]
2 | 1.39 | CCOc1ccccc1C(N)=O [ethenzamide]

Source: US20160213619A1, “INTRAORALLY DISINTEGRABLE TABLET COMPRISING DISINTEGRABLE GRANULAR COMPOSITION” (DAICEL CORPORATION, priority 2013, published 2016)
